What all share (type): cell-based, human
Assay [1] deals with MYB mRNA. Briefly: RT-qPCR splicing assay, MYB mRNA canonical (CJ) and alternative (AJ) junction. The conditions noted are these: Homo sapiens; for AC50: MYB alternative junction mRNA, read-out: MYB AJ (increase in AJ mRNA, AC50). The method, boiled down: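 A673 or K562 cells treated 24 h at 37 °C with 11-point 3-fold dilutions (top final 10 uM, DMSO ≤0.25%). Lysates analysed by one-step RT-qPCR for canonical (CJ) and alternative-exon (AJ) junctions, normalized to GAPDH, GUSB or PPIA. ΔΔCt vs DMSO, RQ = 2^(−ΔΔCt), expressed as percentage response.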

Assay [2] has as its system MYB. Nature of the assay: HiBiT protein abundance assay, MYB (K562 HiBiT knock-in). The conditions noted are these: HiBiT knock-in K562 cells, 24 hours, top dose 10 μM. The method, boiled down: (§1)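 K562 HiBiT knock-in, 24 h, 37 °C, top 10 μM final, 3-fold ×10, DMSO ≤0.25%. Lytic HiBiT luminescence; PC = parental K562, NC = DMSO; 4PL IC50.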
(In general: The HiBiT peptide binds its large partner to form an active luciferase.)

The subject of assay [3] is HTT. Briefly: HiBiT protein abundance assay, HTT (K562 HiBiT knock-in). The conditions noted are these: HiBiT knock-in K562 cells, 24 hours, top dose 10 μM. The method, boiled down: as §1
Assay [4] concerns Target C. Briefly: HiBiT protein abundance assay, Target C (K562 HiBiT knock-in). The conditions noted are these: HiBiT knock-in K562 cells, 24 hours, top dose 10 μM. The method, boiled down:
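K562 HiBiT knock-in cells (10000/well) were treated 24 h at 37° C with a 10-point 3-fold dilution series (top 10 μM final, ≤0.25% DMSO). HiBiT luminescence was read after lytic LgBiT detection. Percent response used unmodified K562 and DMSO-treated knock-in controls, and IC50 came from a four-parameter fit at 50% of untreated.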

[5] abbreviates: MYB canonical junction mRNA, RT-qPCR, read-out: MYB CJ (decrease in CJ mRNA levels, IC50).
Setting [6] is: canonical junction qPCR panel, Table 4, read-out: MYB IC50 (decrease in CJ mRNA levels).

The structures appear in SMILES notation. Where a name gives a salt, the structure may show the parent alone. Read-outs that look alike come from different tables or passages of the source.

Usually AC50 stands for the concentration giving half of the maximal activity seen. The term IC50 denotes the midpoint of a concentration-inhibition curve. For `CNC(=O)c1nc(-c2cc3cn(C)nc3c(F)c2O)nc2ccc(N3CCC(N(C)C)CC3)cc12` [Compound 528, 6-[4-(dimethylamino)piperidin-1-yl]-2-(7-fluoro-6-hydroxy-2-methylindazol-5-yl)-N-methylquinazoline-4-carboxamide], the half-maximal activity concentration (AC50) in assay [1] (RT-qPCR) was < 100 nM. Also, the concentration for half-maximal inhibition (IC50) is < 100 nM in assay [1] (setting [5]); < 100 nM in assay [1] (setting [6]); < 100 nM in assay [2]; 100 to 1000 nM in assay [3]; 100 to 1000 nM in assay [4].
Take `CNC(=O)c1nc(-c2cc3cn(C)nc3c(F)c2O)nc2ccc(N3CCN[C@@H](C)C3)cc12` [Compound 529, 2-(7-fluoro-6-hydroxy-2-methylindazol-5-yl)-N-methyl-6-[(3S)-3-methylpiperazin-1-yl]quinazoline-4-carboxamide]: in assay [1] (RT-qPCR), the concentration at half-maximal activity (AC50) was < 100 nM. In addition, the IC50 was < 100 nM in assay [1] (setting [5]); < 100 nM in assay [1] (setting [6]); < 100 nM in assay [2]; < 100 nM in assay [3]; 100 to 1000 nM in assay [4].
In the case of `CNC(=O)c1nc(-c2cc3cn(C)nc3cc2O)nc2ccc(N3CCN[C@@H](C)C3)cc12` [Compound 530, 2-(6-hydroxy-2-methylindazol-5-yl)-N-methyl-6-[(3S)-3-methylpiperazin-1-yl]quinazoline-4-carboxamide], the concentration at half-maximal activity (AC50) in assay [1] (RT-qPCR) is < 100 nM. In addition, the half-inhibitory concentration (IC50) was < 100 nM in assay [1] (setting [5]); < 100 nM in assay [1] (setting [6]); < 100 nM in assay [2]; 100 to 1000 nM in assay [3]; 100 to 1000 nM in assay [4].
Regarding `CNC(=O)c1nc(-c2cc3cn(C)nc3cc2O)nc2ccc(N3C[C@@H](C)N[C@@H](C)C3)cc12` [Compound 531, 6-[(3R,5S)-3,5-dimethylpiperazin-1-yl]-2-(6-hydroxy-2-methylindazol-5-yl)-N-methylquinazoline-4-carboxamide], the AC50 in assay [1] (RT-qPCR) is < 100 nM. In addition, the half-maximal inhibitory concentration (IC50) in assay [1] (setting [5]) was < 100 nM; in assay [1] (setting [6]), < 100 nM; in assay [2], < 100 nM; in assay [3] it was 100 to 1000 nM; in assay [4], 1000 to 10000 nM.
For the molecule `CNC(=O)c1nc(-c2cc3cn(C)nc3c(C)c2O)nc2ccc(N3CCNC4(CC4)C3)cc12` [Compound 532, 6-{4,7-diazaspiro[2.5]octan-7-yl}-2-(6-hydroxy-2,7-dimethylindazol-5-yl)-N-methylquinazoline-4-carboxamide], the concentration at half-maximal activity (AC50) in assay [1] (RT-qPCR) is < 100 nM. The IC50 was < 100 nM in assay [1] (setting [5]); < 100 nM in assay [1] (setting [6]); < 100 nM in assay [2]; 100 to 1000 nM in assay [3]; 100 to 1000 nM in assay [4].
In the case of `CNC(=O)c1nc(-c2cc3cn(C)nc3c(C)c2O)nc2ccc(N3CCNCC3)nc12` [Compound 533, 2-(6-hydroxy-2,7-dimethylindazol-5-yl)-N-methyl-6-(piperazin-1-yl)pyrido[3,2-d]pyrimidine-4-carboxamide], the AC50 in assay [1] (RT-qPCR) is 100 to 1000 nM. For the same molecule, the IC50 is 100 to 1000 nM in assay [1] (setting [5]); 100 to 1000 nM in assay [1] (setting [6]); 100 to 1000 nM in assay [2]; 1000 to 10000 nM in assay [3]; 1000 to 10000 nM in assay [4].
Take `CNC(=O)c1nc(-c2cc3cn(C)nc3c(C)c2O)nc2ccc(N3C[C@@H](C)N[C@@H](C)C3)nc12` [Compound 534, 6-[(3R,5S)-3,5-dimethylpiperazin-1-yl]-2-(6-hydroxy-2,7-dimethylindazol-5-yl)-N-methylpyrido[3,2-d]pyrimidine-4-carboxamide]: the AC50 in assay [1] (RT-qPCR) is 100 to 1000 nM. Besides, the IC50 lay within 100 to 1000 nM in assay [1] (setting [5]); 100 to 1000 nM in assay [1] (setting [6]); 100 to 1000 nM in assay [2]; 1000 to 10000 nM in assay [3]; 1000 to 10000 nM in assay [4].
Turning to `CCNC(=O)c1nc(-c2cc3cn(C)nc3c(C)c2O)nc2ccc(N3C[C@@H](C)N[C@@H](C)C3)cc12` [Compound 535, 6-[(3R,5S)-3,5-dimethylpiperazin-1-yl]-N-ethyl-2-(6-hydroxy-2,7-dimethylindazol-5-yl)quinazoline-4-carboxamide], the half-maximal activity concentration (AC50) in assay [1] (RT-qPCR) is < 100 nM. Also, the IC50 is < 100 nM in assay [1] (setting [5]); < 100 nM in assay [1] (setting [6]); < 100 nM in assay [2]; < 100 nM in assay [3]; 100 to 1000 nM in assay [4].
For `CNC(=O)c1nc(-c2cc3cn(C)nc3c(C)c2O)nc2ccc(N3CC[C@@H](NC)C3)cc12` [Compound 536, 2-(6-hydroxy-2,7-dimethylindazol-5-yl)-N-methyl-6-[(3R)-3-(methylamino)pyrrolidin-1-yl]quinazoline-4-carboxamide], the AC50 in assay [1] (RT-qPCR) is < 100 nM. The IC50 in assay [1] (setting [5]), in assay [1] (setting [6]), in assay [2], in assay [3] and in assay [4] was < 100 nM throughout.
On to `CNC(=O)c1nc(-c2cc3cn(C)nc3c(C)c2O)nc2ccc(N3CC[C@H](NC)C3)cc12` [Compound 537, 2-(6-hydroxy-2,7-dimethylindazol-5-yl)-N-methyl-6-[(3S)-3-(methylamino)pyrrolidin-1-yl]quinazoline-4-carboxamide], for which the AC50 in assay [1] (RT-qPCR) is < 100 nM. For the same molecule, the IC50 in assay [1] (setting [5]), in assay [1] (setting [6]), in assay [2], in assay [3] and in assay [4] was < 100 nM throughout.
Consider `Cc1c(O)c(-c2nc(-c3c[nH]nn3)c3cc(N4CCNCC4)ccc3n2)cc2cn(C)nc12` [Compound 538, 2,7-dimethyl-5-[6-(piperazin-1-yl)-4-(1H-1,2,3-triazol-4-yl)quinazolin-2-yl]indazol-6-ol hydrochloride], for which the half-maximal activity concentration (AC50) in assay [1] (RT-qPCR) was in the range of 1000 to 10000 nM. Besides, the 50% inhibitory concentration (IC50) in assay [1] (setting [5]), in assay [1] (setting [6]), in assay [2], in assay [3] and in assay [4] was 1000 to 10000 nM in each case.
On to `Cc1c(O)c(-c2nc(C(=O)NC(C)C)c3cc(N4C[C@@H](C)N[C@@H](C)C4)ccc3n2)cc2cn(C)nc12` [Compound 539, 6-[(3R,5S)-3,5-dimethylpiperazin-1-yl]-2-(6-hydroxy-2,7-dimethylindazol-5-yl)-N-isopropylquinazoline-4-carboxamide], for which, in assay [1] (RT-qPCR), the half-maximal activity concentration (AC50) was < 100 nM. Besides, the half-inhibitory concentration (IC50) in assay [1] (setting [5]), in assay [1] (setting [6]), in assay [2], in assay [3] and in assay [4] was < 100 nM in each case.
On to `Cc1c(O)c(-c2nc(C(=O)NC3CCC3)c3cc(N4C[C@@H](C)N[C@@H](C)C4)ccc3n2)cc2cn(C)nc12` [Compound 540], for which the AC50 in assay [1] (RT-qPCR) is < 100 nM. Besides, the half-maximal inhibitory concentration (IC50) in assay [1] (setting [5]) was < 100 nM; in assay [1] (setting [6]), < 100 nM; in assay [2], < 100 nM; in assay [3] it was 100 to 1000 nM; in assay [4], 100 to 1000 nM.
On to `Cc1c(O)c(-c2nc(-c3nn[nH]n3)c3cc(N4CCNCC4)ccc3n2)cc2cn(C)nc12` [Compound 541, 2,7-dimethyl-5-[6-(piperazin-1-yl)-4-(2H-1,2,3,4-tetrazol-5-yl)quinazolin-2-yl]indazol-6-ol], for which the AC50 in assay [1] (RT-qPCR) was 1000 to 10000 nM. In addition, the IC50 in assay [1] (setting [5]) was 1000 to 10000 nM; in assay [1] (setting [6]), 1000 to 10000 nM; in assay [2], > 10000 nM; in assay [3] it was > 10000 nM; in assay [4] it was > 10000 nM.
Consider `C[C@@H]1CN(c2ccc3nc(-c4cc5cn(C)nc5c(F)c4O)nc(C4CC4)c3c2)C[C@H](C)N1` [Compound 542, 5-{4-cyclopropyl-6-[(3R,5S)-3,5-dimethylpiperazin-1-yl]quinazolin-2-yl}-7-fluoro-2-methylindazol-6-ol], for which the AC50 in assay [1] (RT-qPCR) was < 100 nM. Moreover, the half-inhibitory concentration (IC50) in assay [1] (setting [5]) is < 100 nM; in assay [1] (setting [6]) it was < 100 nM; in assay [2] it was < 100 nM; in assay [3], 1000 to 10000 nM; in assay [4], 100 to 1000 nM.
As to `CN[C@@H]1CCN(c2ccc3nc(-c4cc5cn(C)nc5c(F)c4O)nc(C4CC4)c3c2)C1` [Compound 543, 5-{4-cyclopropyl-6-[(3R)-3-(methylamino)pyrrolidin-1-yl]quinazolin-2-yl}-7-fluoro-2-methylindazol-6-ol], in assay [1] (RT-qPCR), the AC50 was < 100 nM. For the same molecule, the IC50 in assay [1] (setting [5]) was < 100 nM; in assay [1] (setting [6]) it was < 100 nM; in assay [2] it was < 100 nM; in assay [3], < 100 nM; in assay [4] it was 100 to 1000 nM.
In the case of `Cc1cn2cc(-c3ccc4cc(N5C[C@@H](C)N[C@@H](C)C5)cc(F)c4n3)cc(F)c2n1` [Compound 544, 6-[(3R,5S)-3,5-dimethylpiperazin-1-yl]-8-fluoro-2-{8-fluoro-2-methylimidazo[1,2-a]pyridin-6-yl}quinoline], in assay [1] (RT-qPCR), the concentration at half-maximal activity (AC50) is 100 to 1000 nM. In addition, the 50% inhibitory concentration (IC50) in assay [1] (setting [5]), in assay [1] (setting [6]), in assay [2], in assay [3] and in assay [4] was 100 to 1000 nM in each case.
Take `CNC(=O)c1nc(-c2cc3cn(C)nc3c(C)c2O)nc2ccc(N3C[C@H](C)N[C@@H](C)C3)cc12` [Compound 652, 6-[(3S,5S)-3,5-dimethylpiperazin-1-yl]-2-(6-hydroxy-2,7-dimethylindazol-5-yl)-N-methylquinazoline-4-carboxamide]: the concentration at half-maximal activity (AC50) in assay [1] (RT-qPCR) is < 100 nM. Also, the IC50 is < 100 nM in assay [1] (setting [5]); < 100 nM in assay [1] (setting [6]); < 100 nM in assay [2]; < 100 nM in assay [3]; 100 to 1000 nM in assay [4].

For the origin of these results see patent publication US20250092065A1, “2-(INDAZOL-5-YL)-6-(PIPERIDIN-4-YL)-1,7-NAPHTHYRIDINE DERIVATIVES AND RELATED COMPOUNDS AS MODULATORS FOR SPLICING NUCLEIC ACIDS AND FOR THE TREATMENT OF PROLIFERATIVE DISEASES” (REMIX THERAPEUTICS INC., priority 2022, published 2025).
